Consider two molecules from EP4721767A1 (priority 2023, dated 2024).

The subject of assay [1] is HT29 human colon cancer cells. In words: Cell killing activity of camptothecins (CCK-8). The conditions noted are these: HT29, killing 4 days. It counts as cell-based. How it is done:
(§1) KB oral epithelial cancer cells (purchased from: ATCC) were cultured in DMEM medium supplemented with 10% FBS; NCI-N87 human gastric cancer cells (purchased from: ATCC) were cultured in RPMI1640 medium supplemented with 10% FBS; HT29 human colon cancer cells (purchased from: ATCC) were cultured in RPMI1640 medium supplemented with 10% FBS; and BxPC-3 human pancreatic adenocarcinoma cells (purchased from: ATCC) were cultured in RPMI1640 medium supplemented with 10% FBS.
(§2) Using corresponding media described above and in cell plates, the density of KB cells was adjusted to 2×10^4/mL; the density of NCI-N87 cells was adjusted to 5×10^4/mL; the density of HT29 cells was adjusted to 5×10^4/mL, and the cells were plated onto 96-well transparent flat bottom plates, at 100 µL/well, and cultured overnight; and the density of BxPC-3 cells was adjusted to 5×10^4/mL.
(§3) Samples to be detected were diluted to 20 µM with corresponding media, then 5-fold gradient dilution was performed, and 9 concentrations were obtained. A well having cells but with no any sample added was set as the well showing maximum cell growth; and a well having no cells was set as the well of medium background. The diluted samples were added into the cell plates, at 100 µL/well, which were then incubated in a CO2 incubator for 96 hours. After the incubation, CCK-8 (purchased from: DOJINDO LABORATORIES) prepared beforehand was added into the plates, at 20 µL/well, and after further 3 hours of incubation in the CO2 incubator, OD values at 450 nm were read on a microplate reader.
(§4) Data obtained was fitted to a four-parameter curve using software Prism7, and equation for calculating maximum killing is: maximum killing (%) = 1 - (OD450 value of the well showing maximum killing - OD450 value of the well of medium background) / (OD450 value of the well showing maximum cell growth - OD450 value of the cell of medium background) × 100%. Table 6. Results of comparative study on the activity of camptothecins

For assay [2], the system named is KB oral epithelial cancer cells. In words: Cell killing activity of camptothecins (CCK-8). It counts as cell-based. Particulars: killing 4 days. How it is done:
as §1, §2, §3, §4

For the next assay, the system named is Calu-3. Put plainly: Proliferation-inhibiting effect on tumor cells (SRB / MTT). Type of assay: cell-based. The conditions noted are these: Homo sapiens; Calu-3, 144 hours; read-out: IC50 (nM, mean ± SD). How it is done:
(§5) For cells growing by adherence, SRB assay was used to detect effect of antibody-drug conjugates, antibodies, or camptothecins on the proliferation of tumor cells in vitro cultured. A certain number of cells in exponential growth phase were inoculated in 96-well cell culture plates, and when the cells grew by adherence overnight, antibody drug conjugates, antibodies, or camptothecins of different concentrations were added into the cells. 144 hours of incubation later, the cells were fixed with trichloroacetic acid, and then stained with SRB (prepared in 1% glacial acetic acid at a concentration of 4 mg/mL). 10 mM Tris solution was added into each well to solubilize the bound SRB. OD values at 510 nm were read on a microplate reader. [formula]
(§6) For cells growing in suspension, MTT assay was used to detect effect of antibody-drug conjugates, antibodies, or camptothecins on the proliferation of tumor cells in vitro cultured. A certain number of cells in exponential growth phase were inoculated in 96-well cell culture plates, and when the cells grew in suspension overnight, antibody-drug conjugates, antibodies, or camptothecins of different concentrations were added into the cells. 144 hours of incubation later, MTT was added to each well of the plates, and the incubation was continued for 4 hours at 37 °C in a 5% CO2 saturated humidity incubator. Next, 100 µL of SDS-isobutanol-HCl solution was added into each well of the plates, and OD values at 570 nm and 690 nm were read on a microplate reader.
(§7) Half maximal inhibitory concentration (IC50) was calculated from the inhibition (%) at those different concentrations using the software Graphpad Prism 8.0. The experiment was repeated once and the data was expressed as mean ± SD, and a plot of log(concentration) versus inhibition was generated. Table 10. Results of the proliferation-inhibiting effect of ADCs targeting B7-H3 on different tumor cells

The next assay relates to PANC 05.04. The assay is described as above. Type of assay: cell-based. Particulars: Homo sapiens; PANC 05.04, 144 hours; read-out: IC50 (nM, mean ± SD). How it is done:
as §5, §6, §7

The test system of the next assay is NCI-N87. The description is as above. It counts as cell-based. The conditions noted are these: Homo sapiens; NCI-N87, 144 hours; read-out: IC50 (nM, mean ± SD). How it is done:
as §5, §6, §7

Another assay relates to MC38. The assay is described as above. It counts as cell-based. The conditions noted are these: Mus musculus, MC-38; MC38, 144 hours; read-out: IC50 (nM, mean ± SD). How it is done:
as §5, §6, §7

For the next assay, the system named is HCT-116. The description is as above. The conditions noted are these: Homo sapiens; HCT-116, 144 hours; read-out: IC50 (nM, mean ± SD). Type of assay: cell-based. How it is done: as §5, §6, §7
For a further assay, the system named is BxPC-3. The description is as above. Particulars: Homo sapiens; BxPC-3, 144 hours; read-out: IC50 (nM, mean ± SD). Type of assay: cell-based. How it is done:
as §5, §6, §7

For a further assay, the system named is MDA-MB-231. The description is as above. It counts as cell-based. Particulars: Homo sapiens; MDA-MB-231, 144 hours; read-out: IC50 (nM, mean ± SD). How it is done:
as §5, §6, §7

The next assay relates to U-87 MG. The description is as above. Type of assay: cell-based. Particulars: Homo sapiens, 144 hours, read-out: IC50 (nM, mean ± SD). How it is done: as §5, §6, §7
The next assay deals with PANC-1. The description is as above. Type of assay: cell-based. The conditions noted are these: Homo sapiens; PANC-1, 144 hours; read-out: IC50 (nM, mean ± SD). How it is done: as §5, §6, §7
For the next assay, the system named is MDA-MB-468. The description is as above. Particulars: Homo sapiens; MDA-MB-468, 144 hours; read-out: IC50 (nM, mean ± SD). It counts as cell-based. How it is done:
as §5, §6, §7

Another assay deals with SW626. Described as above. Type of assay: cell-based. Particulars: Homo sapiens; SW626, 144 hours; read-out: IC50 (nM, mean ± SD). How it is done:
as §5, §6, §7

Another assay relates to SK-OV-3. The description is as above. Type of assay: cell-based. The conditions noted are these: Homo sapiens; SK-OV-3, 144 hours; read-out: IC50 (nM, mean ± SD). How it is done: as §5, §6, §7
A further assay relates to ES-2. Described as above. It counts as cell-based. Particulars: Homo sapiens; ES-2, 144 hours; read-out: IC50 (nM, mean ± SD). How it is done: as §5, §6, §7
For another assay, the system named is HT-29. Described as above. It counts as cell-based. Particulars: Homo sapiens; HT-29, 144 hours; read-out: IC50 (nM, mean ± SD). How it is done:
as §5, §6, §7

In the next assay the test system is MC38/B7H3. Described as above. Type of assay: cell-based. Particulars: Mus musculus, MC-38; MC38/B7H3, 144 hours; read-out: IC50 (nM, mean ± SD). How it is done:
as §5, §6, §7

In the next assay the test system is Calu-6. Described as above. Particulars: Homo sapiens; Calu-6, 144 hours; read-out: IC50 (nM, mean ± SD). Type of assay: cell-based. How it is done:
as §5, §6, §7

In assay [3] the target is T1, Recombinant human B7-H3 extracellular domain protein (UniProtKB-Q5ZPR3, amino acids 1-461, C-His tag) (human) (UniProt Q5ZPR3).
T1 sequence (looked up): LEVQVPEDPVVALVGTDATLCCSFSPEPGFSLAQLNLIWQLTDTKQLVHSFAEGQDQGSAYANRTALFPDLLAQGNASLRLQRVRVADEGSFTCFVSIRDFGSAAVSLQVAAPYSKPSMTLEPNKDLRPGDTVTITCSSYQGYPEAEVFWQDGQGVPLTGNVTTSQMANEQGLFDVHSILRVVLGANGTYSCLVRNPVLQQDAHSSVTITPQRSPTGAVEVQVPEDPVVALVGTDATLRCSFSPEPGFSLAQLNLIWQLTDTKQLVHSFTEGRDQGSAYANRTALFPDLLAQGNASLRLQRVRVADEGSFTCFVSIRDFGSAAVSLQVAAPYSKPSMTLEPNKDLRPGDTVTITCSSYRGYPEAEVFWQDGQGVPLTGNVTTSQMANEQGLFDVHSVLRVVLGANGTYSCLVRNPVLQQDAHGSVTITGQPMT
Put plainly: BLI (ForteBio Octet QKe), antibody on AHC probes, 60 nM antigen, 1:1 Langmuir fit. Background: BLI is a label-free optical method that tracks binding on a fibre tip over time.

For assay [4], the target named is T2, human B7-H3 naturally expressed on the surface of SKOV3 cells (human) (UniProt Q5ZPR3).
T2 sequence (looked up): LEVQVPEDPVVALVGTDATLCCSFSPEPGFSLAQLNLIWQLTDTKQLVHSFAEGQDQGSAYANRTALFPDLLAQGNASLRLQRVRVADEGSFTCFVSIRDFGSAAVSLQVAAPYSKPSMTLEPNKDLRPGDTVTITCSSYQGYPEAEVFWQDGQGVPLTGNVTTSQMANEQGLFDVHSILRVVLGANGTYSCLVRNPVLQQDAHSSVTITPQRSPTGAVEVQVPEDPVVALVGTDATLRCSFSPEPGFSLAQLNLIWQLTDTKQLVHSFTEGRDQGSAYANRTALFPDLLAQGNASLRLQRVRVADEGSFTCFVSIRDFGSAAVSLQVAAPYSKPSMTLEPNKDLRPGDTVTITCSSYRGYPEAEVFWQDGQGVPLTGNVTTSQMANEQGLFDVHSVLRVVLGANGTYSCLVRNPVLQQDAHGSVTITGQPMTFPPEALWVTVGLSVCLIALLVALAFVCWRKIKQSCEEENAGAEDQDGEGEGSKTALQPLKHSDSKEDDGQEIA
In words: flow cytometry (MFI) on SKOV3 cells naturally expressing human B7-H3. On the technique in general: In flow cytometry, cells or beads pass a laser one at a time.

What is called EC50 is the concentration giving half of the maximal effect. Read a low EC50 as higher potency in that assay. In general, IC50 refers to the concentration needed to halve the response being measured. Take `CC[C@@]1(O)C(=O)OCc2c1cc1n(c2=O)Cc2c-1nc1ccc(N)c3c1c2C(F)(F)CC3` [Compound 3]: the “Maximum Killing (%)” value in assay [1] is listed as 90.6%; in [2], 95.6%. Also, the EC50 in assay [1] (Homo sapiens, HT-29, 96 h) was 6040 pM; in assay [2] (96 h), 7470 pM. The 50% inhibitory concentration (IC50) in the assay with Calu-3 worked out at 0.44 ± 0.1 nM; in the assay on PANC 05.04, 0.35 ± 0.19 nM; in the assay with NCI-N87, 1.26 ± 0.13 nM; in the assay on MC38, 3.27 ± 0.75 nM; in the assay with HCT-116 it was 0.3 nM; with BxPC-3 it was 0.26 ± 0.09 nM. Besides, the IC50 came out at 0.59 ± 0.03 nM in the assay with MDA-MB-231; 3.72 ± 0.01 nM in the assay on U-87 MG; 0.82 ± 0.16 nM in the assay with PANC-1; 0.21 ± 0.11 nM with MDA-MB-468; 3.08 ± 0.63 nM in the assay on SW626; 1.05 ± 0.48 nM in the assay on SK-OV-3. Also, the IC50 with ES-2 was determined as 0.21 ± 0.08 nM; in the assay with HT-29 it was 0.62 nM; with MC38/B7H3, 4.67 ± 1.98 nM; with Calu-6 it was 0.25 ± 0.06 nM.

B1: Control antibody hum30 (antibody, from another filing, V domains shown)
VH: QVQLVQSGAEVKKPGSSVKVSCKASGYTFTNYVMHWVRQAPGQGLEWMGYINPYNDDVKYNEKFKGRVTITADESTSTAYMELSSLRSEDTAVYYCARWGYYGSPLYYFDYWGQGTLVTVSS
VL: EIVLTQSPATLSLSPGERATLSCRASSRLIYMHWYQQKPGQAPRPLIYATSNLASGIPARFSGSGSGTDFTLTISSLEPEDFAVYYCQQWNSNPPTFGQGTKVEIK
The term Kd denotes the free concentration of one partner at which half of the binding sites on the other are occupied at equilibrium, for simple one-to-one binding. As usually defined, the koff is a measure of how fast the partners let go of each other. A word on the kon: it is the second-order rate constant of association. Regarding B1, in assay [3], the dissociation constant Kd was 344 pM, the koff turned out to be 0.000324 s⁻¹ and the kon came to 941000 M⁻¹ s⁻¹. This molecule also returned an EC50 in [4] of 1220 pM.
